Experiments:
Format in all cases: in vivo
[1] = system: rice (Oryza sativa); assay: Test B flooded paddy: rice; settings: Flood, applied to paddy water at 2-leaf stage, visually evaluated after 13 to 15 days
Outline: (§1)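 Paddy-water application: seedlings at 2-leaf stage, flood depth 3 cm maintained for the test duration. Evaluation after 13–15 days in the greenhouse by eye relative to controls; 0–100 scale.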

[2] = system: soybean (Glycine max); assay: Test C pre-/postemergence: soybean
Outline: (§2)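 Preemergence on seeds in loam/sand, postemergence on 2–18 cm (1–4-leaf) plants in peat-based medium; compounds in non-phytotoxic solvent with surfactant. After 13–15 days in greenhouse, visual rating versus controls, 0 (no effect) to 100 (complete control).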

[3] = system: lambsquarters (Chenopodium album); assay: Test C pre-/postemergence: lambsquarters
Outline: as §2

[4] = system: ryegrass, Italian (Italian ryegrass, Lolium multiflorum); assay: Test C pre-/postemergence: ryegrass, Italian
Outline: as §2

[5] = system: wheat (Triticum aestivum); assay: Test A pre-/postemergence: wheat
Outline: (§3)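 Whole-plant greenhouse assay in loam/sand. Preemergence directed soil spray plus simultaneous postemergence spray (one- to two-leaf stage, 2–10 cm). Rated visually ~10 days later, 0 = no effect, 100 = complete control.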

[6] = system: pigweed (Amaranthus retroflexus); assay: Test C pre-/postemergence: pigweed
Outline: as §2

[7] = system: winter wheat (Triticum aestivum); assay: Test C pre-/postemergence: winter wheat
Outline: as §2

[8] = system: barnyardgrass (Echinochloa crus-galli); assay: Test A pre-/postemergence: barnyardgrass
Outline: as §3

[9] = system: sedge, umbrella (small-flower umbrella sedge Cyperus difformis); assay: Test B flooded paddy: sedge, umbrella; settings: Flood, applied to paddy water at 2-leaf stage, visually evaluated after 13 to 15 days
Outline: as §1

[10] = system: barnyardgrass (Echinochloa crus-galli); assay: Test B flooded paddy: barnyardgrass; settings: Flood, applied to paddy water at 2-leaf stage, visually evaluated after 13 to 15 days
Outline: as §1

[11] = system: pigweed (Amaranthus retroflexus); assay: Test A pre-/postemergence: pigweed
Outline: as §3

[12] = Preemergence, 31 g ai/ha, scale of 0 to 100, 0 is no effect, 100 is complete control
[13] = Preemergence, 62 g ai/ha, scale of 0 to 100, 0 is no effect, 100 is complete control
[14] = Preemergence, 250 g ai/ha, scale 0 to 100, 0 no effect, 100 complete control
[15] = Preemergence, 125 g ai/ha, scale 0 to 100, 0 no effect, 100 complete control
[16] = Postemergence, 125 g ai/ha, 0 to 100 scale, 0 is no effect, 100 is complete control
[17] = Postemergence, 500 g ai/ha, visual rating on 0 to 100 scale (0 no effect, 100 complete control), approximately ten days
[18] = Preemergence, 125 g ai/ha, 0 to 100 scale where 0 is no effect and 100 is complete control
[19] = Preemergence, 500 g ai/ha, 0 to 100 scale (0 no effect, 100 complete control)
[20] = Postemergence, 31 g ai/ha, scale 0 to 100 (0 no effect, 100 complete control)
[21] = Postemergence, 62 g ai/ha, scale 0 to 100 (0 no effect, 100 complete control)
[22] = Postemergence, 125 g ai/ha, scale 0 to 100, 0 no effect, 100 complete control
[23] = Preemergence, 31 g ai/ha, scale 0 (no effect) to 100 (complete control)
[24] = Postemergence, 250 g ai/ha, scale 0 to 100 (0 no effect, 100 complete control)
[25] = Postemergence, 500 g ai/ha, 0 to 100 scale, 0 is no effect, 100 is complete control

Compound: Cc1nn(-c2ccc(F)cc2F)nc1Oc1ccnc(C(F)(F)F)c1 [Compound 146]
- Plant response rating, Rice (0 to 100 scale, 0 is no effect, 100 is complete control) ([1]; 250 g ai/ha): 35
- Plant response rating, Soybean [2, 12]: 10
- Plant response rating, Soybean [2, 13]: 15
- Plant response rating, Soybean [2, 14]: 40
- Plant response rating, Lambsquarters [3, 12]: 10
- Plant response rating, Lambsquarters [3, 13]: 40
- Plant response rating, Lambsquarters [3, 15]: 85
- Plant response rating, Lambsquarters [3, 14]: 95
- Plant response rating, Ryegrass, Italian [4, 12]: 0
- Plant response rating, Ryegrass, Italian [4, 13]: 30
- Plant response rating, Ryegrass, Italian [4, 15]: 55
- Plant response rating, Ryegrass, Italian [4, 14]: 90
- Plant response rating, Wheat [5, 16]: 10
- Wheat plant response rating [5, 17]: 30
- Plant response rating, Wheat [5, 18]: 0
- Plant response rating, Wheat [5, 19]: 30
- Plant response rating, Pigweed [6, 12]: 85
- Plant response rating, Pigweed [6, 13]: 90
- Plant response rating, Pigweed [6, 15]: 100
- Plant response rating, Pigweed [6, 14]: 100
- Plant response rating, Wheat [7, 13]: 0
- Plant response rating, Wheat [7, 15]: 0
- Plant response rating, Wheat [7, 14]: 10
- Barnyardgrass plant response rating [8, 16]: 30
- Barnyardgrass plant response rating [8, 17]: 90
- Plant response rating, Barnyardgrass [8, 18]: 90
- Plant response rating, Barnyardgrass [8, 19]: 100
- Plant response rating, Sedge, Umbrella (0 to 100 scale, 0 is no effect, 100 is complete control) ([9]; 250 g ai/ha): 80
- Plant response rating, Barnyardgrass (0 to 100 scale, 0 is no effect, 100 is complete control) ([10]; 250 g ai/ha): 50
- Plant response rating, Pigweed [11, 16]: 100
- Pigweed plant response rating [11, 17]: 100
- Plant response rating, Pigweed [11, 18]: 100
- Plant response rating, Pigweed [11, 19]: 100

Compound: CCCc1nn(-c2ccc(C(F)(F)F)cc2)nc1Oc1ccnc(C(F)(F)F)c1 [Compound 170]
- Plant response rating, Rice (0 to 100 scale, 0 is no effect, 100 is complete control) ([1]; 250 g ai/ha): 60
- Plant response rating, Soybean [2, 20]: 30
- Plant response rating, Soybean [2, 21]: 70
- Plant response rating, Soybean [2, 22]: 90
- Plant response rating, Soybean [2, 23]: 5
- Plant response rating, Soybean [2, 13]: 5
- Plant response rating, Soybean [2, 15]: 20
- Plant response rating, Soybean [2, 14]: 45
- Plant response rating, Lambsquarters [3, 20]: 85
- Plant response rating, Lambsquarters [3, 21]: 95
- Plant response rating, Lambsquarters [3, 22]: 95
- Plant response rating, Lambsquarters [3, 24]: 98
- Plant response rating, Lambsquarters [3, 23]: 85
- Plant response rating, Lambsquarters [3, 13]: 85
- Plant response rating, Lambsquarters [3, 15]: 98
- Plant response rating, Lambsquarters [3, 14]: 98
- Plant response rating, Ryegrass, Italian [4, 20]: 15
- Plant response rating, Ryegrass, Italian [4, 21]: 35
- Plant response rating, Ryegrass, Italian [4, 22]: 35
- Plant response rating, Ryegrass, Italian [4, 24]: 70
- Plant response rating, Ryegrass, Italian [4, 23]: 55
- Plant response rating, Ryegrass, Italian [4, 13]: 90
- Plant response rating, Ryegrass, Italian [4, 15]: 95
- Plant response rating, Ryegrass, Italian [4, 14]: 95
- Plant response rating, Wheat [5, 16]: 40
- Wheat plant response rating [5, 25]: 50
- Plant response rating, Wheat [5, 18]: 60
- Plant response rating, Wheat [5, 19]: 80
- Plant response rating, Pigweed [6, 20]: 100
- Plant response rating, Pigweed [6, 21]: 100
- Plant response rating, Pigweed [6, 22]: 100
- Plant response rating, Pigweed [6, 24]: 100
- Plant response rating, Pigweed [6, 23]: 100
- Plant response rating, Pigweed [6, 13]: 100
- Plant response rating, Pigweed [6, 15]: 100
- Plant response rating, Pigweed [6, 14]: 100
- Plant response rating, Wheat [7, 20]: 10
- Plant response rating, Wheat [7, 21]: 20
- Plant response rating, Wheat [7, 22]: 35
- Plant response rating, Wheat [7, 24]: 35
- Plant response rating, Wheat [7, 23]: 10
- Plant response rating, Wheat [7, 13]: 40
- Plant response rating, Wheat [7, 15]: 60
- Plant response rating, Wheat [7, 14]: 60
- Plant response rating, Barnyardgrass [8, 16]: 90
- Barnyardgrass plant response rating [8, 25]: 90
- Plant response rating, Sedge, Umbrella (0 to 100 scale, 0 is no effect, 100 is complete control) ([9]; 250 g ai/ha): 90
- Plant response rating, Barnyardgrass (0 to 100 scale, 0 is no effect, 100 is complete control) ([10]; 250 g ai/ha): 80
- Plant response rating, Pigweed [11, 16]: 100
- Pigweed plant response rating [11, 25]: 100
- Plant response rating, Pigweed [11, 18]: 100
- Plant response rating, Pigweed [11, 19]: 100

Compound: CCOc1nn(-c2ccc(Cl)cc2)nc1Cc1ccnc(C(F)(F)F)c1 [Compound 188]
- Plant response rating, Rice (0 to 100 scale, 0 is no effect, 100 is complete control) ([1]; 125 g ai/ha): 50
- Plant response rating, Soybean [2, 20]: 40
- Plant response rating, Soybean [2, 21]: 50
- Plant response rating, Soybean [2, 22]: 50
- Plant response rating, Soybean [2, 24]: 55
- Plant response rating, Soybean [2, 23]: 5
- Plant response rating, Soybean [2, 13]: 20
- Plant response rating, Soybean [2, 14]: 65
- Plant response rating, Lambsquarters [3, 20]: 90
- Plant response rating, Lambsquarters [3, 21]: 95
- Plant response rating, Lambsquarters [3, 22]: 98
- Plant response rating, Lambsquarters [3, 24]: 98
- Plant response rating, Lambsquarters [3, 23]: 90
- Plant response rating, Lambsquarters [3, 13]: 90
- Plant response rating, Lambsquarters [3, 15]: 98
- Plant response rating, Lambsquarters [3, 14]: 100
- Plant response rating, Ryegrass, Italian [4, 20]: 50
- Plant response rating, Ryegrass, Italian [4, 21]: 70
- Plant response rating, Ryegrass, Italian [4, 22]: 85
- Plant response rating, Ryegrass, Italian [4, 24]: 90
- Plant response rating, Ryegrass, Italian [4, 23]: 60
- Plant response rating, Ryegrass, Italian [4, 13]: 65
- Plant response rating, Ryegrass, Italian [4, 15]: 95
- Plant response rating, Ryegrass, Italian [4, 14]: 98
- Plant response rating, Wheat [5, 16]: 70
- Wheat plant response rating [5, 25]: 70
- Plant response rating, Wheat [5, 18]: 30
- Plant response rating, Wheat [5, 19]: 50
- Plant response rating, Pigweed [6, 20]: 95
- Plant response rating, Pigweed [6, 21]: 95
- Plant response rating, Pigweed [6, 22]: 98
- Plant response rating, Pigweed [6, 24]: 100
- Plant response rating, Pigweed [6, 23]: 100
- Plant response rating, Pigweed [6, 13]: 100
- Plant response rating, Pigweed [6, 15]: 100
- Plant response rating, Pigweed [6, 14]: 100
- Plant response rating, Wheat [7, 20]: 20
- Plant response rating, Wheat [7, 21]: 30
- Plant response rating, Wheat [7, 22]: 45
- Plant response rating, Wheat [7, 24]: 50
- Plant response rating, Wheat [7, 23]: 30
- Plant response rating, Wheat [7, 13]: 30
- Plant response rating, Wheat [7, 15]: 35
- Plant response rating, Wheat [7, 14]: 40
- Plant response rating, Barnyardgrass [8, 16]: 90
- Barnyardgrass plant response rating [8, 25]: 90
- Plant response rating, Barnyardgrass [8, 18]: 90
- Plant response rating, Barnyardgrass [8, 19]: 100
- Plant response rating, Sedge, Umbrella (0 to 100 scale, 0 is no effect, 100 is complete control) ([9]; 125 g ai/ha): 100
- Plant response rating, Barnyardgrass (0 to 100 scale, 0 is no effect, 100 is complete control) ([10]; 125 g ai/ha): 75
- Plant response rating, Pigweed [11, 16]: 100
- Pigweed plant response rating [11, 25]: 100
- Plant response rating, Pigweed [11, 18]: 100
- Plant response rating, Pigweed [11, 19]: 100

Source: patent publication US9302999B2, “Substituted triazoles as herbicides” (E. I. DU PONT DE NEMOURS AND COMPANY, priority 2012, dated 2016)
